Results reported in paper PMC6934184, “Selective DNA-PKcs inhibition extends the therapeutic index of localized radiotherapy and chemotherapy” (The Journal of Clinical Investigation, 2019).

Test system: MCF7 cells
Assay: clonogenic survival with IR
Format: cell-based, Human
Settings: 1 μM
Protocol: Cell line γH2AX and 53BP1 foci immunofluorescence and quantitation
Cells grown on coverslips or in 96-well plates were treated with 1 or 5 µM NU5455 or DMSO 1 hour prior to irradiation (0, 2.5 or 10 Gy) using an RS 320 X-ray Research System (Gulmay Medical). At set timepoints (15 or 30 minutes, or 1, 4, 5, 6, or 24 hours post-irradiation), cells were washed and fixed in methanol or 3% paraformaldehyde (PFA). […] In A549 and Calu-6, cells were Hoechst stained (5 µg/ml), and the average numbers of γH2AX and 53BP1 foci per cell were quantified from 400 nuclei per sample using an In Cell analyzer 1000 (GE Healthcare). For MCF7 cells, coverslips were mounted using Vectashield mounting medium with DAPI (Vector Labs) and imaged using a Leica TCS SPE confocal fluorescence microscope. Total fluorescence intensity was determined using ImagePro Plus 5.0 software (Media Cybernetics). […]
Cells were washed in phosphate-buffered saline (PBS), trypsinized and counted. […] Colonies were fixed using Carnoys fixture (75% v/v methanol, 25% v/v acetic acid, Fisher), stained with crystal violet (0.4% w/v in water), and counted using a ColCount automated colony counter (Oxford Optronics). Cell survival was calculated as a percentage of the untreated control. […]

CN(C(=O)CN1CCOCC1)c1ccc2sc3c(-c4cccc5c(=O)cc(N6CC7CCC(C6)O7)oc45)cccc3c2c1 [NU5455]
radio-enhancement (LD80) (24-hour treatment after IR): 2.4 fold | radio-enhancement (LD80) (1 hour of treatment after IR): 1.2 fold
